Assay results published in PMC11359702, “Synthesis and Biochemical Evaluation of Ethanoanthracenes and Related Compounds: Antiproliferative and Pro-Apoptotic Effects in Chronic Lymphocytic Leukemia (CLL)” (Pharmaceuticals, 2024).
“And” between values parts separate entries of the source, which are not always exact repeats. Equal entries are not always repeated. Where two headings read alike, the source gives them in different places. Each block holds one compound with its values, some of them ahead of it.

Key:
[1] = HPLC stability study in phosphate buffers; format: physicochemical; details: for % remaining 24 h pH 4 / % remaining 24 h pH 7.4 / % remaining 24 h pH 9 / remaining at 24 h, 14.6 µg/mL: HPLC; for recovery at 24 h: over the pH range studied (pH 4, 7.4 and 9); for remaining at 24 h, 14.6 µg/mL / half-life at 14.6 µg/mL: phosphate buffer
Experimental: A preliminary stability study was carried out on selected chalcones, maleic anhydride and maleimide adducts at acidic, neutral and basic conditions (pH 4, 7.4 and 9) using HPLC to determine suitability for further preclinical investigations. […] A possible degradation route for the maleimide 23n could be through the hydrolysis of the cyclic imide of the maleimide ring, leading to the resultant amic acid product.
All samples were analyzed using acetonitrile–water (80:20%, 70:30%, 60:40% isocratic) as the mobile phase over 10 min and a flow rate of 1 mL/min. Stock solutions were prepared by dissolving 5 mg of compounds in a mobile phase ([(acetonitrile (80%): water (20%)], 10 mL). Anhydride 22h was not detected at its retention time of 5.2 min at pH 9.0. The data presented represent the results of single experiments.
The HPLC stability studies for compounds 21a, 21i, 22h, 23a, 23g, 23n, 24a, 24h, 26a and 26n were performed using a Symmetry® column (C18, 5 µm, 4.6 × 150 mm), a Waters 2487 Dual Wavelength Absorbance detector, and an HPLC pump: Waters 1525 binary and Autosampler; Waters 717 plus (Waters Corporation, Milford, MA, USA), mobile phase [(acetonitrile (80%) and water (20%)] with a typical run time of 10 min and a flow rate of 1 mL/min with detection at 254 nm. The selected compounds 21a, 21i, 22h, 23a, 23g, 23n, 24a, 24h, 26a and 26n (5 mg) in the mobile phase (10 mL) provided the stock solution for the analysis. The phosphate buffers were prepared at pH values of 4, 7.4 and 9, as described in the British Pharmacopoeia monograph 2019. The stock solution (30 µL) was added to the appropriate buffer (1 mL) and retained at 37 °C. Samples were then analyzed over the following 24-h period at selected time intervals (t = 0 min, 5 min, 30 min, 60 min, 90 min, 120 min and 24 h).

HG-3 cells [2] = system: HG-3 cells
[3] = system: HG-3 and PGA-1 cell lines; assay: alamarBlue cell viability assay, mean of both CLL cell lines; format: cell-based, human; details: mean of HG-3 and PGA-1
HG-3 cells [4] = assay: alamarBlue cell viability assay; details: HG-3, 24 h; for IC50: read-out: HG-3 IC50; for viability at 10 µM: read-out: cell viability, HG-3, 10 µM, 24 h, vehicle = 100%
PGA-1 cells = assay: alamarBlue cell viability assay; details: for IC50: read-out: PGA-1 IC50; for viability at 10 µM: read-out: cell viability
[5] = pH 4 buffer, 37 °C, read-out: % remaining 24 h pH 4
[6] = pH 4 buffer, 37 °C, read-out: Half-life pH 4 (converted)
[7] = pH 7.4 buffer, 37 °C, read-out: % remaining 24 h pH 7.4
[8] = pH 7.4 buffer, 37 °C, read-out: Half-life pH 7.4 (converted)
[9] = pH 9 buffer, 37 °C, read-out: % remaining 24 h pH 9
[10] = pH 9 buffer, 37 °C, read-out: Half-life pH 9 (converted)

- Half-life pH 4 ([1]; pH 4 buffer, 37 °C): 14.8 h
- % remaining 24 h pH 4 ([1]; pH 4 buffer, 37 °C): 25% and 24.97%
- Half-life pH 7.4 ([1]; pH 7.4 buffer, 37 °C): > 24 h
- % remaining 24 h pH 7.4 ([1]; pH 7.4 buffer, 37 °C): 80% and 79.48%
- Half-life pH 9 ([1]; pH 9 buffer, 37 °C): > 24 h
- % remaining 24 h pH 9 ([1]; pH 9 buffer, 37 °C): 81% and 80.99%
Structure (SMILES): O=C(/C=C/C12c3ccccc3C(c3ccccc31)C1C(=O)N(c3ccccc3)C(=O)C12)c1ccc(F)cc1 (centres unmarked) [Compound 24h]

Structure (SMILES): O=C(C=CC12c3ccccc3C(c3ccccc31)C1C(=O)N(c3ccccc3)C(=O)C12)c1ccccn1 (centres unmarked) [Compound 24n, 9-(E)-3-Oxo-3-(pyridin-2-yl)prop-1-en-1-yl)-13-phenyl-9,10-dihydro-9,10-[3,4]epipyrroloanthracene-12,14-dione]
- cell viability (HG-3 cells [2]; 1 µM): 48%
- cell viability (HG-3 cells [2]; 10 µM): 4%

- recovery at 24 h [1]: < 50%
- remaining at 24 h, 14.6 µg/mL [1, 5]: 46.3%
- half-life at 14.6 µg/mL [1, 6]: 3.25 h
- remaining at 24 h, 14.6 µg/mL [1, 7]: 38.6%
- half-life at 14.6 µg/mL [1, 8]: 2 h
- remaining at 24 h, 14.6 µg/mL [1, 9]: 38.6%
- half-life at 14.6 µg/mL [1, 10]: 1.5 h
Structure (SMILES): O=C(/C=C/c1c2ccccc2cc2ccccc12)c1ccc(Br)cc1 [Compound 21a, (E)-3-(anthracen-9-yl)-1-(4-bromophenyl)prop-2-en-1-one]

Structure (SMILES): O=C(C=CC12c3ccccc3C(c3ccccc31)C1C(=O)N(c3ccccc3)C(=O)C12)c1cccs1 (centres unmarked) [Compound 24q, 9-(E)-3-Oxo-3-(thiophen-2-yl)prop-1-en-1-yl)-13-phenyl-9,10-dihydro-9,10-[3,4]epipyrroloanthracene-12,14-dione]
- cell viability (HG-3 cells [2]; 10 µM): 24%

Structure (SMILES): COc1cc(C(=O)/C=C/C23c4ccccc4C(c4ccccc42)C2C(=O)NC(=O)C23)cc(OC)c1OC (centres unmarked) [Compound 23k, (E)-9-(3-Oxo-3-(3,4,5-trimethoxyphenyl)prop-1-en-1-yl)-9,10-dihydro-9,10-[3,4] epipyrroloanthracene-12,14-dione]
- IC50 [3]: 5.19 µM
- IC50 (HG-3 cells [4]): 4.9 µM
- IC50 (PGA-1 cells; PGA-1, 24 h): 5.38 µM

Structure (SMILES): O=C1NC(=O)C2C1C1c3ccccc3C2(C=C[N+](=O)[O-])c2ccccc21 (centres unmarked) [Compound 20d]
- IC50 ([3]; Homo sapiens, CLL cell): 0.77 µM
- IC50 (HG-3 cells [4]; Homo sapiens): 0.78 µM
- viability at 10 µM (HG-3 cells [4]; Homo sapiens): 14 to 43%
- IC50 (PGA-1 cells; Homo sapiens, 24 h): 0.76 µM
- viability at 10 µM (PGA-1 cells; Homo sapiens, 24 h): 17%

- recovery at 24 h [1]: < 50%
- remaining at 24 h, 14.6 µg/mL [1, 5]: 48.4%
- half-life at 14.6 µg/mL [1, 6]: 4.17 h
- remaining at 24 h, 14.6 µg/mL [1, 7]: 45.2%
- half-life at 14.6 µg/mL [1, 8]: 23.5 h
- remaining at 24 h, 14.6 µg/mL [1, 9]: 33.6%
- half-life at 14.6 µg/mL [1, 10]: 23.5 h
Structure (SMILES): O=C(/C=C/C12c3ccccc3C(c3ccccc31)C1C(=O)N(c3ccccc3)C(=O)C12)c1ccc(Br)cc1 (centres unmarked) [Compound 24a]
- viability at 10 µM (HG-3 cells [4]; Homo sapiens): 14%
- viability at 10 µM (PGA-1 cells; Homo sapiens, 24 h): 25%

Structure (SMILES): O=C(/C=C/c1c2ccccc2cc2ccccc12)c1ccc(F)cc1 [Compound 21h, (E)-3-(anthracen-9-yl)-1-(4-fluorophenyl)prop-2-en-1-one]
- viability at 10 µM (PGA-1 cells; Homo sapiens, 24 h): 70%

Structure (SMILES): O=C(/C=C/c1c2ccccc2cc2ccccc12)c1ccc(Cl)cc1 [Compound 21l, (E)-3-(anthracen-9-yl)-1-(4-chlorophenyl)prop-2-en-1-one]
- viability at 10 µM (PGA-1 cells; Homo sapiens, 24 h): 70%

- recovery at 24 h [1]: < 50%
- Half-life pH 4 ([1]; pH 4 buffer, 37 °C): 2.1 h
- % remaining 24 h pH 4 ([1]; pH 4 buffer, 37 °C): 0.81%
- Half-life pH 7.4 ([1]; pH 7.4 buffer, 37 °C): 1 h
- % remaining 24 h pH 7.4 ([1]; pH 7.4 buffer, 37 °C): 3.13%
- % remaining 24 h pH 9 ([1]; pH 9 buffer, 37 °C): not detected
Structure (SMILES): O=C(/C=C/C12c3ccccc3C(c3ccccc31)C1C(=O)OC(=O)C12)c1ccc(F)cc1 (centres unmarked) [Compound 22h]

Structure (SMILES): O=C(c1ccccc1)c1ccc(N2C(=O)C3C4c5ccccc5C(/C=C/C(=O)c5cccs5)(c5ccccc54)C3C2=O)cc1 (centres unmarked) [Compound 26q, (E)-13-(4-Benzoylphenyl)-9-(3-oxo-3-(thiophen-2-yl)prop-1-en-1-yl)-9,10-dihydro-9,10-[3,4]epipyrroloanthracene-12,14-dione]
- cell viability (HG-3 cells [2]; 10 µM): 56%

Structure (SMILES): COc1ccc(C(=O)/C=C/C23c4ccccc4C(c4ccccc42)C2C(=O)NC(=O)C23)cc1 (centres unmarked) [Compound 23i, (E)-9-(3-(4-Methoxyphenyl)-3-oxoprop-1-en-1-yl)-9,10-dihydro-9,10-[3,4]epipyrroloanthracene-12,14-dione]
- IC50 [3]: 11.4 µM
- IC50 (HG-3 cells [4]): 10.3 µM
- IC50 (PGA-1 cells; PGA-1, 24 h): 12.6 µM

- recovery at 24 h [1]: < 50%
- remaining at 24 h, 14.6 µg/mL [1, 5]: 27.9%
- half-life at 14.6 µg/mL [1, 6]: ~11.5 h
- remaining at 24 h, 14.6 µg/mL [1, 7]: 26.6%
- half-life at 14.6 µg/mL [1, 8]: 3.85 h
- remaining at 24 h, 14.6 µg/mL [1, 9]: 42.1%
- half-life at 14.6 µg/mL [1, 10]: ~11.5 h
Structure (SMILES): COc1ccc(C(=O)/C=C/c2c3ccccc3cc3ccccc23)cc1 [Compound 21i, (E)-3-(anthracen-9-yl)-1-(4-methoxyphenyl)prop-2-en-1-one]
- viability at 10 µM (PGA-1 cells; Homo sapiens, 24 h): 49%
